Assay results: article PMC6714992 (Clinical and Applied Thrombosis/Hemostasis, 2019)

Biological target: factor Xa (Bos taurus, UniProt P00743)
Test: kinetic amidolytic
Assay type: biochemical

Chain of factor Xa (P00743 41-180): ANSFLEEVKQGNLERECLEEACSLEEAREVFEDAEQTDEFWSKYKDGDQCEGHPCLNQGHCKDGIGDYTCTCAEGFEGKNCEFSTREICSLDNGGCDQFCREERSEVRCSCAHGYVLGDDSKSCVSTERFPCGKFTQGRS
Chain of factor Xa (P00743 234-492): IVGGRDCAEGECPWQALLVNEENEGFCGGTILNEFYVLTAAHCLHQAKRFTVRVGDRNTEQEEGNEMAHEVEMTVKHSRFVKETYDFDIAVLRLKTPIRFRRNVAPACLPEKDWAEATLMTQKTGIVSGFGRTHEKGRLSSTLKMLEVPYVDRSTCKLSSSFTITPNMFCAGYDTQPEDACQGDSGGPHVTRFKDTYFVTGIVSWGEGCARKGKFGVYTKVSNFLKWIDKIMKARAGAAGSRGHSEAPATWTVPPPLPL

Question: Which IC50 does the source give for `COc1ccc(NC(=O)c2ccc(C(=N)N(C)C)cc2)c(C(=O)Nc2ccc(Cl)cn2)c1` [betrixaban] here?
Answer: The IC50 was over 2.88 µM.
